In PubChem BioAssay AID1996:
Converted amounts (≈) assume the structure as drawn.

Conditions: buffer; pH 7.4; 200.0 µM

Compared with `O=C(COC(=O)c1ccc(F)cc1)NC1CC1`, `O=C(Cc1ccc(Cl)cc1)NC1CCCCCC1` is lower in solubility kinetic: greater than 35.6 µg/mL for the first, 10.2 µg/mL (≈ 38.4 µM) for the second.

`NC(=O)c1ccc(N2CCNC(=O)C2)c([N+](=O)[O-])c1` and `O=C(OCC(=O)N1CCCC1)c1ccc(Cl)nc1` cannot be ordered by solubility kinetic: greater than 39.6 µg/mL for the first, greater than 40.3 µg/mL for the second.

`CCN(Cc1nc(-c2cccc(C)c2)no1)C(=O)c1ccco1` and `COc1cc(C(F)(F)F)c(C(=O)N(C)Cc2cccc(Cl)c2)cn1` are within 1.5-fold of each other in solubility kinetic: 44.4 µg/mL (≈ 143 µM) for the first, 43.6 µg/mL (≈ 122 µM) for the second.

Going from `O=C(COC(=O)C1=COCCO1)Nc1ccc(Cl)cn1` to `Cc1ccc(NC(=O)CCC(=O)c2ccc(Cl)s2)nc1`, the solubility kinetic falls from greater than 44.8 µg/mL to 7.5 µg/mL (≈ 24.3 µM).

`CC1CCC(NC(=O)c2ccc3c(c2)OCO3)CC1` (centres undefined) and `Cc1ccc(C(=O)OCC(=O)NCc2ccc3c(c2)OCO3)cc1S(=O)(=O)N1CCOCC1` are within 1.5-fold of each other in solubility kinetic: 10.4 µg/mL (≈ 39.8 µM) for the first, 7.2 µg/mL (≈ 15.1 µM) for the second.

Compared with `COC(=O)c1c(C)[nH]c(C(=O)/C=C/c2ccc(C)cc2)c1C`, `Cc1ccc(NC(=O)/C(=C\c2ccccc2)NC(=O)c2ccco2)cc1` is 2.8-fold higher in solubility kinetic: 1.7 µg/mL (≈ 5.72 µM) for the first, 4.7 µg/mL (≈ 13.6 µM) for the second.

Going from `CC(=O)Nc1cc[n+](C(C)C(=O)c2ccccc2)cc1.[Cl-]` (centres undefined) to `CC(=O)Nc1ccc(-c2nc3ccccc3o2)cc1`, the solubility kinetic falls from 34 µg/mL to 1.3 µg/mL (≈ 5.15 µM) (26-fold).

First: Cc1nc(-c2ccc(C(=O)NCCO)cc2)cs1
Second: COc1ccc(C(=O)Nc2ccc3ccccc3c2)cc1
The solubility kinetic of the first is higher: greater than 39.3 µg/mL for the first, less than 0.6 µg/mL for the second.

`Cc1noc(C)c1S(=O)(=O)N1CCC(C(N)=O)CC1` and `COc1c(C)cc(S(=O)(=O)N2CCOCC2)c(C)c1C` cannot be ordered by solubility kinetic: greater than 43.1 µg/mL for the first, greater than 44.9 µg/mL for the second.

`O=C(NC1CCN(C(=O)c2cccs2)CC1)c1ccccc1` and `O=C(NC(=S)NNC(=O)c1cccs1)c1ccccc1` cannot be ordered by solubility kinetic: 46.1 µg/mL (≈ 147 µM) for the first, greater than 45.8 µg/mL for the second.

Compared with `CCN(Cc1ccncc1)Cc1ccc(OC)cc1OC.O=C(O)C(=O)O`, `COc1ccc(-n2c(CCC(=O)O)ccc2-c2ccccc2)cc1` is higher in solubility kinetic: 43.5 µg/mL for the first, greater than 48.2 µg/mL for the second.

`Cc1cc(=O)[nH]c(SCc2cn3ccccc3n2)n1` and `Cc1cc(=O)[nH]c(Nc2cccc(Cl)c2C)n1` cannot be ordered by solubility kinetic: greater than 40.8 µg/mL for the first, greater than 37.5 µg/mL for the second.

Compared with `Cc1ccc(OCC(=O)N2CCCCCCC2)cc1C`, `O=C(COc1ccc(F)cc1Br)NCC1(N2CCCCC2)CCCCC1` is 2.4-fold higher in solubility kinetic: 22.6 µg/mL (≈ 82.1 µM) for the first, 55 µg/mL (≈ 129 µM) for the second.

`Cc1ccc(CN2CCN(Cc3ccc(O)cc3)CC2CCO)o1` (centres undefined) and `Cc1cc(N2CCOCC2)nc(SCC(=O)OCc2ccccc2)n1` cannot be ordered by solubility kinetic: greater than 49.6 µg/mL for the first, greater than 53.9 µg/mL for the second.

`C/C(=N\Nc1nc(C)cc(C)n1)c1ccc(C)o1` and `Cc1cccnc1NC(N)=S` cannot be ordered by solubility kinetic: greater than 36.6 µg/mL for the first, greater than 25.1 µg/mL for the second.

Compared with `CCOc1ccccc1NC(=O)NCc1ccccn1`, `CC(CCc1ccccc1)NC(=O)CSc1ccccn1` (centres undefined) is lower in solubility kinetic: greater than 40.7 µg/mL for the first, 34.6 µg/mL (≈ 115 µM) for the second.

First: CC1SC2(NC1=O)C1CC3CC(C1)CC2C3 (centres undefined)
Second: O=C(NC12CC3CC(CC(C3)C1)C2)c1cc(F)c(F)cc1Cl
The solubility kinetic of the first is 4.9-fold higher: 3.4 µg/mL (≈ 14.3 µM) for the first, 0.7 µg/mL (≈ 2.15 µM) for the second.

`CCc1nc2sccc2c(=O)[nH]1` and `COc1ccccc1C(=O)OCc1cc(=O)n2ccsc2n1` cannot be ordered by solubility kinetic: greater than 27 µg/mL for the first, greater than 47.4 µg/mL for the second.

`CC(NC(=O)/C(C#N)=C/c1ccc(OCC(=O)O)cc1)c1ccccc1` (centres undefined) and `CC(=O)N/C(=C\c1ccccc1)C(=O)NC(C)C(=O)O` (centres undefined) cannot be ordered by solubility kinetic: 50.8 µg/mL (≈ 145 µM) for the first, greater than 41.4 µg/mL for the second.

Compared with `O/N=C/Cc1[nH]c2ccccc2c1-c1ccccc1`, `O=C(CCCN1C(=O)c2ccccc2C1=O)Nc1ccccc1` is higher in solubility kinetic: 34.8 µg/mL (≈ 139 µM) for the first, greater than 46.3 µg/mL for the second.

Going from `O=C(Nc1ccccc1N1CCCC1)c1ccc2ccccc2c1` to `COc1ccc(-c2ccc3ccccc3n2)cc1`, the solubility kinetic falls from 2.7 µg/mL (≈ 8.53 µM) to less than 0.5 µg/mL.

Going from `COc1ccc(C2c3ccsc3CCN2C(C)=O)cc1` (centres undefined) to `COCCSc1ccccc1C(=O)N1CCc2ccccc2C1`, the solubility kinetic rises from 32.2 µg/mL (≈ 112 µM) to greater than 49.1 µg/mL.

First: CSc1cccc(NC(=O)C2CC(=O)N(Cc3ccccc3)C2)c1 (centres undefined)
Second: Cc1ccc(C)c(CN2C(=O)COc3ccccc32)c1
The solubility kinetic of the first is higher: greater than 51.1 µg/mL for the first, 2.8 µg/mL (≈ 10.5 µM) for the second.

First: Cn1c(=O)c2c(ncn2CCC(=O)N/N=C/c2ccccc2)n(C)c1=O
Second: O=C(O)CN1C(=O)c2ccc(C(=O)c3ccccc3)cc2C1=O
The solubility kinetic of the first is higher: greater than 53.2 µg/mL for the first, 45.8 µg/mL (≈ 148 µM) for the second.

First: CC(C)CC1C2C(=O)N(c3ccccc3)C(=O)C2ON1c1ccccc1 (centres undefined)
Second: O=C(NC1CCSc2ccccc21)c1cccc(OC(F)F)c1 (centres undefined)
The solubility kinetic of the first is 6.2-fold higher: 27.7 µg/mL (≈ 79 µM) for the first, 4.5 µg/mL (≈ 13.4 µM) for the second.

First: CC1CCCCN1C(=O)CCS(=O)(=O)Cc1ccccc1 (centres undefined)
Second: NS(=O)(=O)c1ccc(NC(=S)N2CCCC2)cc1
The solubility kinetic of the first is lower: 35 µg/mL (≈ 113 µM) for the first, greater than 42.8 µg/mL for the second.

`CC1(C)CC(NS(=O)(=O)c2ccc(Cl)cc2)CC(C)(C)N1` and `Cc1oc2c(cc(NS(=O)(=O)c3ccc(Cl)cc3)c3ccccc32)c1C(=O)O` cannot be ordered by solubility kinetic: greater than 49.6 µg/mL for the first, greater than 62.4 µg/mL for the second.

First: O=C(COC(=O)C1(c2ccc(Cl)cc2)CCCC1)NCc1ccco1
Second: O=C(Nc1ccccc1Cl)c1ccc([N+](=O)[O-])o1
The solubility kinetic of the first is 1.9-fold lower: 20.7 µg/mL (≈ 57.2 µM) for the first, 39.4 µg/mL (≈ 148 µM) for the second.

First: Oc1ccc(/C=N/N2CCCCC2)c(O)c1O
Second: Cc1cc(C)cc(NC(=O)CCN2CCCC2)c1
The solubility kinetic of the first is higher: greater than 35.4 µg/mL for the first, 35.3 µg/mL (≈ 143 µM) for the second.

In the case of `N#CC1(NC(=O)Cn2cc(C(F)(F)F)cc(Cl)c2=O)CCCCC1`, the solubility kinetic is reported as 13.8 µg/mL (≈ 38.1 µM).
